Like-named read-outs stand apart in the source and are kept apart here.
B1: IL-7: cIAP2-inducing agent that imparts T cells with increased apoptotic resistance (protein, UniProt P13232 26-177, looked up)
Interleukin-7: DCDIEGKDGKQYESVLMVSIDQLLDSMKEIGSNCLNNEFNFFKRHICDANKEGMFLFRAARKLRQFLKMNSTGDFDLHLLKVSEGTTILLNCTGQVKGRKPAALGEAQPTKSLEENKSLKEQKKLNDLCFLKRLLQEIKTCWNKILMGTKEH

Key:
[1] = tested on: cIAP2−/− and control mice; conditions: LPS 0 μg/kg, D-galactosamine 0.6 g/kg i.p.
Description: In addition, we exposed cIAP2^−/− mice to a second mode of LPS-induced toxicity, where treatment with D-galactosamine (DGLBN) sensitized mice to endotoxic shock.

spleen derived T cells = experiment: Dexamethasone-induced death of T cells pre-incubated with IL-7; type: cell-based, mouse; conditions: dexamethasone 100 nM
Procedure: Peritoneal-derived macrophages from cIAP2^−/− (lower panels) and cIAP2^+/+ mice (upper panels) were either pre-treated with LPS for 4 h or not pre-treated prior to exposure to α-Fas antibody and then TUNEL stained to assess cell viability (A). Percentages of viable cells (n=5, average of triplicate wells per mouse, P values were <0.01) are shown within each TUNEL stained panel along with the standard deviation. cIAP2^−/−-derived (open shapes) and cIAP2^+/+-derived (solid shapes) T cells were pre-incubated with a range of IL-7 concentrations and then exposed to dexamethasone and T cell survival was monitored over a 12 h period (B) (n=3, average of triplicate wells per mouse, results are mean±s.d., P values at the 12 h point were <0.05). Peritoneal-derived cell numbers are shown for macrophages of cIAP2^−/− mice and littermate control cIAP2^+/+ mice injected i.p. with LPS(C). […]
Confluent primary cultures of peritoneal-derived macrophages were either pre-treated with LPS (10 μg/ml, 4 h) or not pre-treated prior to exposure to α-Fas antibody (20 μg/ml, clone Jo2) and then TUNEL stained (Roche) to assess cell viability. Primary cultures of spleen derived T cells were pre-incubated with a range of IL-7 concentrations (0, 5, and 10 ng/ml) and then exposed to dexamethasone (100 nM) and T cell survival was monitored over a 12 h period.

Molecule	Survival ([1]; cIAP2+/+ mice)	Survival ([1]; cIAP2−/− mice)	Resistance to apoptosis with or without IL-7 pretreatment (spleen derived T cells; cIAP2−/− T cells)	Resistance against dexamethasone-induced death after IL-7 pre-exposure (spleen derived T cells; wild-type T cells, IL-7 5 or 10 ng/ml)
N[C@H]1C(O)O[C@H](CO)[C@H](O)[C@@H]1O (stereo partly drawn) [D-galactosamine]	6/6	6/6		
B1			displayed no difference in the resistance to apoptosis	showed a dose dependent resistance against dexamethasone-induced death

Source: patent US20060123501A1, “Method for treating inflammatory disorders” (priority 2004, published 2006)
